Calls of active or inactive are those of the source. The rule behind the calls is not given here.
What was measured:
HeLa [1] = assay: Antiproliferative activity against human HeLa cells after 48 hrs by MTT assay; type: functional, cell-based
A2780 = assay: cells; settings: Homo sapiens, A2780, 48 h
Description: Antiproliferative activity against human A2780 cells after 48 hrs by MTT assay

MDA-MB-231 = assay: Antiproliferative activity against human MDA-MB-231 cells after 48 hrs by MTT assay; type: functional, cell-based; settings: MDA-MB-231, 48 h
SK-OV-3 = assay: Antiproliferative activity against human SKOV3 cells after 48 hrs by MTT assay; settings: SK-OV-3, 48 h
Homo sapiens = species: Homo sapiens; assay: Disruption of microtubule structure in human SKOV3 cells assessed as decrease in density at 50 nM after 24 hrs by DAPI staining based immunofluorescence assay; type: cell-based
HeLa [2] = assay: Inhibition of alpha-tubulin polymerization in human HeLa cells assessed as increase in ratio of supernatant faction to pellet fraction at 500 nM after 6 hrs by Western blot analysis; type: cell-based
HeLa [3] = assay: Induction of apoptosis in human HeLa cells assessed as live cells at 100 nM after 48 hrs by Annexin V-FITC/propidium iodide staining based flow cytometry (reference value: 96.5%); type: functional
HeLa [4] = assay: Cell cycle arrest in human HeLa cells assessed as accumulation at G2/M-phase at 50 nM after 24 hrs by propidium iodide staining based flow cytometry; type: functional
HeLa [5] = assay: Induction of apoptosis in human HeLa cells assessed as early apoptotic cells at 100 nM after 48 hrs by Annexin V-FITC/propidium iodide staining based flow cytometry (reference value: 0.7%); type: functional
HeLa [6] = assay: Induction of apoptosis in human HeLa cells assessed as late apoptotic cells at 100 nM after 48 hrs by Annexin V-FITC/propidium iodide staining based flow cytometry (reference value: 2%); type: functional
HeLa [7] = assay: Induction of apoptosis in human HeLa cells assessed as necrotic cells at 100 nM after 48 hrs by Annexin V-FITC/propidium iodide staining based flow cytometry (reference value: 0.9%); type: functional

Row | Structure (SMILES) | IC50 (HeLa [1]) [nM] | IC50 (A2780) [nM] | IC50 (MDA-MB-231) [nM] | IC50 (SK-OV-3) [nM] | Activity (Homo sapiens) | tubulin polymerization inhibition (active/inactive) (HeLa [2]) | Activity (HeLa [3]) [%] | Activity (HeLa [4]) [%] | Activity (HeLa [5]) [%] | Activity (HeLa [6]) [%] | Activity (HeLa [7]) [%]
1 | COc1ccc([C@H]2[C@@H](OC(=O)CCC(=O)O)C(=O)N2c2cc(OC)c(OC)c(OC)c2)cc1O | 178 | 79 | 102 | 210 | – | – | – | – | – | – | –
2 | C=C1C(=O)N(c2cc(OC)c(OC)c(OC)c2)[C@H]1c1ccc(OC)c(OC(C)C)c1 | > 20000 | 11300 | 15900 | 18000 | – | – | – | – | – | – | –
3 | C=C1C(=O)N(c2cc(OC)c(OC)c(OC)c2)[C@H]1c1ccc(OC)c(OCCC)c1 | 6890 | 3420 | 5620 | 5260 | – | – | – | – | – | – | –
4 | COc1ccc([C@@H]2CC(=O)N2c2cc(OC)c(OC)c(OC)c2)cc1O | 30 | 22 | 28 | 24 | – | – | – | – | – | – | –
5 | C=C1C(=O)N(c2cc(OC)c(OC)c(OC)c2)[C@H]1c1ccc(OC)c(OC)c1 | 3160 | 854 | 1020 | 2260 | – | – | – | – | – | – | –
6 | COc1ccc([C@H]2/C(=C/c3ccccc3)C(=O)N2c2cc(OC)c(OC)c(OC)c2)cc1O | 4730 | 2540 | 3160 | 2990 | – | – | – | – | – | – | –
7 | C=C1C(=O)N(c2cc(OC)c(OC)c(OC)c2)[C@H]1c1ccc(OC)c(Cl)c1 | 371 | 316 | 512 | 341 | – | – | – | – | – | – | –
8 | CC(=O)O[C@H]1C(=O)[C@@]2(C)[C@H]([C@H](OC(=O)c3ccccc3)[C@]3(O)C[C@H](OC(=O)[C@H](O)[C@@H](NC(=O)c4ccccc4)c4ccccc4)C(C)=C1C3(C)C)[C@]1(OC(C)=O)CO[C@@H]1C[C@@H]2O | – | – | – | – | inactive | inactive | – | – | – | – | –
9 | COC[C@@]1(OC)C(=O)N(c2cc(OC)c(OC)c(OC)c2)[C@H]1c1ccc(OC)c(O)c1 | > 20000 | 17700 | > 20000 | > 20000 | – | – | – | – | – | – | –
10 | C=C1C(=O)N(c2cc(OC)c(OC)c(OC)c2)[C@H]1c1cccc(O)c1 | 15000 | 10500 | 6640 | 14500 | – | – | – | – | – | – | –
11 | COc1ccc([C@H]2[C@H](Br)C(=O)N2c2cc(OC)c(OC)c(OC)c2)cc1O | 13 | 8 | 10 | 9 | – | – | – | – | – | – | –
12 | C=C1C(=O)N(c2cc(OC)c(OC)c(OC)c2)[C@H]1c1ccccc1 | > 20000 | > 20000 | > 20000 | > 20000 | – | – | – | – | – | – | –
13 | C=C1C(=O)N(c2cc(OC)c(OC)c(OC)c2)[C@H]1c1ccc(OC)c(OS(=O)(=O)c2ccc(C)cc2)c1 | 17800 | > 20000 | 12800 | 12100 | – | – | – | – | – | – | –
14 | COc1ccc([C@H]2/C(=C/c3ccc(C(C)(C)C)cc3)C(=O)N2c2cc(OC)c(OC)c(OC)c2)cc1O | > 20000 | > 20000 | > 20000 | > 20000 | – | – | – | – | – | – | –
15 | C=C1C(=O)N(c2ccc(OC)cc2)[C@H]1c1ccc(OC)c(O)c1 | > 20000 | > 20000 | > 20000 | > 20000 | – | – | – | – | – | – | –
16 | COc1ccc(/C=C\c2cc(OC)c(OC)c(OC)c2)cc1O [COMBRETASTATIN A4] | – | – | – | – | Active | Active | 30 | 100 | 33.3 | 29.2 | 7.5
17 | C=C1C(=O)N(c2cc(OC)c(OC)c(OC)c2)[C@H]1c1ccc(OC)c(N)c1 | 32 | 31 | 40 | 36 | – | – | – | – | – | – | –
18 | C=C1C(=O)N(c2cc(OC)c(OC)c(OC)c2)[C@H]1c1ccc(OC)c(OCc2ccccc2)c1 | > 20000 | > 20000 | > 20000 | > 20000 | – | – | – | – | – | – | –
19 | C=C1C(=O)N(c2cc(OC)c(OC)c(OC)c2)[C@H]1c1ccc(OC)cc1 | > 20000 | > 20000 | > 20000 | > 20000 | – | – | – | – | – | – | –
20 | C=C1C(=O)N(c2ccccc2)[C@H]1c1ccccc1 | > 20000 | > 20000 | > 20000 | > 20000 | – | – | – | – | – | – | –

Continued, in another order:

Row | IC50 (HeLa [1]) [nM] | IC50 (A2780) [nM] | IC50 (MDA-MB-231) [nM] | IC50 (SK-OV-3) [nM] | Structure (SMILES) | Activity (Homo sapiens) | tubulin polymerization inhibition (active/inactive) (HeLa [2]) | Activity (HeLa [3]) [%] | Activity (HeLa [4]) [%] | Activity (HeLa [5]) [%] | Activity (HeLa [6]) [%] | Activity (HeLa [7]) [%]
21 | 33 | 15 | 28 | 83 | COc1ccc([C@H]2[C@H](n3cc(CO)nn3)C(=O)N2c2cc(OC)c(OC)c(OC)c2)cc1O | – | – | – | – | – | – | –
22 | 2030 | 854 | 958 | 1140 | C=C1C(=O)N(c2cc(OC)c(OC)c(OC)c2)[C@H]1c1ccc(OC)c(OCC)c1 | – | – | – | – | – | – | –
23 | 1790 | 1220 | 1960 | 2210 | COc1ccc([C@H]2[C@@H](OC)C(=O)N2c2cc(OC)c(OC)c(OC)c2)cc1O | – | – | – | – | – | – | –
24 | 547 | 215 | 784 | 365 | C=C1C(=O)N(c2cc(OC)c(OC)c(OC)c2)[C@H]1c1cc(OC)c(OC)c(OC)c1 | – | – | – | – | – | – | –
25 | 209 | 127 | 193 | 265 | C=C1C(=O)N(c2cc(OC)c(OC)c(OC)c2)[C@H]1c1ccc(C)cc1 | – | – | – | – | – | – | –
26 | 657 | 287 | 560 | 414 | C=C1C(=O)N(c2cc(OC)c(OC)c(OC)c2)[C@H]1c1ccc(OC)c(O[Si](C)(C)C(C)(C)C)c1 | – | – | – | – | – | – | –
27 | 131 | 121 | 112 | 136 | C=C1C(=O)N(c2cc(OC)c(OC)c(OC)c2)[C@H]1c1ccc(OC)c(F)c1 | – | – | – | – | – | – | –
28 | 2170 | 677 | 1370 | 1390 | C=C1C(=O)N(c2cccc(OC)c2)[C@H]1c1ccc(OC)c(O)c1 | – | – | – | – | – | – | –
29 | 2100 | 1540 | 2320 | 2070 | COc1ccc([C@@H]2N(c3cc(OC)c(OC)c(OC)c3)C(=O)[C@]2(O)CO)cc1O | – | – | – | – | – | – | –
30 | 192 | 164 | 254 | 231 | COc1ccc([C@H]2[C@H](NS(C)(=O)=O)C(=O)N2c2cc(OC)c(OC)c(OC)c2)cc1O | – | – | – | – | – | – | –
31 | 35 | 33 | 47 | 32 | COc1ccc([C@H]2[C@H](NC(C)=O)C(=O)N2c2cc(OC)c(OC)c(OC)c2)cc1O | – | – | – | – | – | – | –
32 | 35 | 21 | 17 | 8 | COc1ccc([C@H]2[C@H](C)C(=O)N2c2cc(OC)c(OC)c(OC)c2)cc1N | – | – | – | – | – | – | –
33 | 215 | 81 | 63 | 59 | COc1ccc([C@H]2[C@@H](C)C(=O)N2c2cc(OC)c(OC)c(OC)c2)cc1N | – | – | – | – | – | – | –
34 | 295 | 112 | 125 | 175 | C=C1C(=O)N(c2cc(OC)cc(OC)c2)[C@H]1c1ccc(OC)c(O)c1 | – | – | – | – | – | – | –
35 | 31 to 63 | 31 to 63 | 31 to 63 | 31 to 63 | COc1ccc([C@H]2[C@@H](C)C(=O)N2c2cc(OC)c(OC)c(OC)c2)cc1O | – | – | – | – | – | – | –
36 | 24 | 27 | 47 | 45 | COc1ccc([C@H]2[C@H](NC(=O)c3ccccc3)C(=O)N2c2cc(OC)c(OC)c(OC)c2)cc1O | – | – | – | – | – | – | –
37 | 116 | 81 | 133 | 104 | C=C1C(=O)N(c2cc(OC)c(OC)c(OC)c2)[C@H]1c1ccc(OC)c(OC(C)=O)c1 | – | – | – | – | – | – | –
38 | 3920 | 5750 | 5140 | 3270 | COc1ccc([C@@H]2[C@H](C)C(=O)N2c2cc(OC)c(OC)c(OC)c2)cc1O | – | – | – | – | – | – | –
39 | 807 | 771 | 1080 | 650 | COc1ccc([C@@H]2[C@@H](C)C(=O)N2c2cc(OC)c(OC)c(OC)c2)cc1O | – | – | – | – | – | – | –
40 | 44 | 35 | 27 | 8 | COc1ccc([C@H]2[C@H](CO)C(=O)N2c2cc(OC)c(OC)c(OC)c2)cc1N | – | – | – | – | – | – | –
41 | 328 | 327 | 107 | 54 | COc1ccc([C@H]2[C@@H](CO)C(=O)N2c2cc(OC)c(OC)c(OC)c2)cc1N | – | – | – | – | – | – | –
42 | 125 | 65 | 34 | 63 | C=CC(=O)Nc1cc([C@H]2C(=C)C(=O)N2c2cc(OC)c(OC)c(OC)c2)ccc1OC | – | – | – | – | – | – | –

From ChEMBL document CHEMBL4251633, “Design, synthesis, biological evaluation and cocrystal structures with tubulin of chiral β-lactam bridged combretastatin A-4 analogues as potent antitumor agents” (Eur J Med Chem, 2018)
